Data from patent US20080124741A1, “Canine Cholecystokinin 1 Receptor Materials And Their Use” (priority 2004, published 2008).
Where two headings read alike, the source gives them in different places. Square brackets hold non-standard residues; d marks the D form. Ends that are not written are not given here. sY = N[C@@H](Cc1ccc(OS(=O)(=O)O)cc1)C(=O)O

Legend:
canine CCK2 receptor = biological target: T1, canine CCK2 receptor (Canis lupus familiaris, UniProt P30552); experiment: competition binding of [125I]-BH-CCK-8S at canine CCK2 receptor
T1 sequence (P30552 1-453): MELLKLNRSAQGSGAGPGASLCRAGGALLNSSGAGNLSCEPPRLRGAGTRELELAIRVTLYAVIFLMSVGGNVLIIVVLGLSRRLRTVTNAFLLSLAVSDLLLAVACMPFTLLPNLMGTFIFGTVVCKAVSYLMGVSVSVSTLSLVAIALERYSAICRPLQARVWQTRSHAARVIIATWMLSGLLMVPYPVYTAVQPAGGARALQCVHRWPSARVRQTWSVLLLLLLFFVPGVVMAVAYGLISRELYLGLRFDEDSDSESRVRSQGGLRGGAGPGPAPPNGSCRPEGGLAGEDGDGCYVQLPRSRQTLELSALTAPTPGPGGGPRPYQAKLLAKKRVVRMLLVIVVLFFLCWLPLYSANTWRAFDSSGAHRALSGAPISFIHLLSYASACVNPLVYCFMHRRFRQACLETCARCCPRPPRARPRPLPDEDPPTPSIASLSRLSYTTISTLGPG

Canine CCK1: Variant #1 = biological target: T2, Canine CCK1: Variant #1 (Canis lupus familiaris, UniProt Q5D0K2, G258S/L413V/V400A); experiment: competition binding at variant #1 canine CCK1 receptor transiently transfected in HEK cells; details: Canine CCK1 variant #1, transiently transfected in HEK cells, n = 3, ± s.e. mean; for Ki: read-out: pKI (affinity value, -log equilibrium dissociation constant) (converted)
T2 construct: plasmid DNAs containing the respective variant canine CCK1 receptor cDNAs and the wild type cDNA were transiently transfected; expressed in transfected cells; host or cells: HEK-293 cells, transient
T2 sequence (Q5D0K2 1-428 G258S/V400A/L413V): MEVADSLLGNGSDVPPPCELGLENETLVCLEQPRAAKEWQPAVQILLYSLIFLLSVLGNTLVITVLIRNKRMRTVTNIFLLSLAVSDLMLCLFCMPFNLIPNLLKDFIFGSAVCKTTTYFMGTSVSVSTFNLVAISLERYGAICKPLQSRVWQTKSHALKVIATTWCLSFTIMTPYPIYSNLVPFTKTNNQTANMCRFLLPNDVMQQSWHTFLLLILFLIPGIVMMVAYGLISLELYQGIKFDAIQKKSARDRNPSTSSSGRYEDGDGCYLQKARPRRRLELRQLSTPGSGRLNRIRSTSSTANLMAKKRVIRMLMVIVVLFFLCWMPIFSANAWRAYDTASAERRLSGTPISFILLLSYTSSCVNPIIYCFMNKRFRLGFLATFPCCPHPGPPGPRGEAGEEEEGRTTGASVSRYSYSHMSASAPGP

human CCK1 receptor = biological target: T3, human CCK1 receptor (Homo sapiens, UniProt P32238); experiment: competition binding of [125I]-BH-CCK-8S at cloned human CCK1 receptor; details: Human CCK1, [125I]-BH-CCK-8S radiolabel, n = 3, ± s.e. mean; for Ki: read-out: pKI (affinity value, -log equilibrium dissociation constant) (converted)
T3 construct: expressed in transfected cells
T3 sequence (P32238 1-428): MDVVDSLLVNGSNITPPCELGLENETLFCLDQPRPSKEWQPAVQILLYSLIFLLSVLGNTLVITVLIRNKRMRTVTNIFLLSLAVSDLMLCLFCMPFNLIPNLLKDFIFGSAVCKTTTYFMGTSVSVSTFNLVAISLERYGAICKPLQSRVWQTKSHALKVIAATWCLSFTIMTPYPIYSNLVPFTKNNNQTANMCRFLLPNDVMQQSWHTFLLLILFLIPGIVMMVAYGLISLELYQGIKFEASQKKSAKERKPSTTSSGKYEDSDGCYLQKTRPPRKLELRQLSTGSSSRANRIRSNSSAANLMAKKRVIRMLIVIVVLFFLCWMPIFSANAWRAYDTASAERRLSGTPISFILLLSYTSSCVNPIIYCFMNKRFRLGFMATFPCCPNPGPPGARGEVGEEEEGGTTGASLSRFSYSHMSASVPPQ

[1] = system: putative CCK1 receptor binding sites labeled with [3H]-L-364,718; details: canine intestine (Mao et al., 1995); cited from earlier work
canine CCK1 receptor = biological target: T4, canine CCK1 receptor (Canis lupus familiaris, UniProt Q5D0K2); experiment: competition binding of [125I]-BH-CCK-8S at cloned canine CCK1 receptor stably expressed in CHO-K cells; details: for nH (Hill slope) / Ki: Canine CCK1, CHO-K cells, [125I]-BH-CCK-8S radiolabel, n = 3, ± s.e. mean; for Ki: read-out: pKI (affinity value, -log equilibrium dissociation constant) (converted)
T4 construct: expressed in transfected cells
T4 sequence (Q5D0K2 1-428): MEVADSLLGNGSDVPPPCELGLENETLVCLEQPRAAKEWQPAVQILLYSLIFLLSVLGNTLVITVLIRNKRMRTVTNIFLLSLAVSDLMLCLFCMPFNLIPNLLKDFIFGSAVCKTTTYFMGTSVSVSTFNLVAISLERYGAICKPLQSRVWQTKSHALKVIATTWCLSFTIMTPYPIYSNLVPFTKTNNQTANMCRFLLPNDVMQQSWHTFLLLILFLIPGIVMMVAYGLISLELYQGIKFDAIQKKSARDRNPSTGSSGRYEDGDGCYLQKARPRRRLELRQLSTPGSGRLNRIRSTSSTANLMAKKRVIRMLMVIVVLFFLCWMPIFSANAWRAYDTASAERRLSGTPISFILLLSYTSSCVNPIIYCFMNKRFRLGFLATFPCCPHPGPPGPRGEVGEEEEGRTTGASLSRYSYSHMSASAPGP

Canine CCK1: Wild-type = biological target: T5, Canine CCK1: Wild-type (Canis lupus familiaris, UniProt Q5D0K2); experiment: competition binding at wild-type canine CCK1 receptor transiently transfected in HEK cells; details: n = 3, ± s.e. mean; for Ki: read-out: pKI (affinity value, -log equilibrium dissociation constant) (converted)
T5 construct: The ORF encodes a 428 amino-acid protein; expressed in transfected cells; host or cells: HEK-293 cells, transient
T5 sequence (Q5D0K2 1-428): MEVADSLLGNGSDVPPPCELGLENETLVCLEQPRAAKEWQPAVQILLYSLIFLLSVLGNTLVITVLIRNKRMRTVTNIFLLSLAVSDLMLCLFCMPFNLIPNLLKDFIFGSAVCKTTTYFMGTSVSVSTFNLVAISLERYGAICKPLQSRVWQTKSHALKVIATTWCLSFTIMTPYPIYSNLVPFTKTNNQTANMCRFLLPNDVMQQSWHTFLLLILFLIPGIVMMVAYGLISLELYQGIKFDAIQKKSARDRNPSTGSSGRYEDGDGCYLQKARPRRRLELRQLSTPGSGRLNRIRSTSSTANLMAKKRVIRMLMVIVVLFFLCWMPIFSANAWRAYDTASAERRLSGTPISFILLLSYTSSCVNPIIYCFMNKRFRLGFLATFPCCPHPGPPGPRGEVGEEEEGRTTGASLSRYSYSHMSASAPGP

[2] = biological target: T6, wild-type canine CCK1 receptor (canine, UniProt Q5D0K2 1-428); experiment: saturation radioligand binding, membranes of stably transfected CHO cells, first phase of the isotherm
T6 construct: Full-length receptor, stably expressed in CHO-K cells or transiently in HEK-293 cells; It was assayed as membrane preparations of those cells; also called canine cholecystokinin 1 receptor; control wild-type canine CCK1R protein
T6 sequence: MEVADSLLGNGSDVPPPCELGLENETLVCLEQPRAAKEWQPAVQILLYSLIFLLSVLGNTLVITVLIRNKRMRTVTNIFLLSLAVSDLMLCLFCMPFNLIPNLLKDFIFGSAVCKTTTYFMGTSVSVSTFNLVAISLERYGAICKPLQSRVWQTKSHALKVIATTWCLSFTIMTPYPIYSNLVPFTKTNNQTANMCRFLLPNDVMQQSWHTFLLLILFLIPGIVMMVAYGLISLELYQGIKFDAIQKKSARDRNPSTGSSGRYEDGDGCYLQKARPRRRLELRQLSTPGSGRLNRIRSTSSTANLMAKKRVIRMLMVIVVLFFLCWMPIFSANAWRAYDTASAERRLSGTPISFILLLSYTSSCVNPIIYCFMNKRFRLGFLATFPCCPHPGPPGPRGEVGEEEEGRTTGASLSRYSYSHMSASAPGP

[3] = biological target: T7, canine CCK1 receptor variant #2 (canine, UniProt Q5D0K2 1-428); experiment: radioligand binding (20 pM [125I]-BH-CCK-8S) against increasing membrane protein, transiently transfected HEK cells
T7 construct: Six amino-acid differences from wild type; Transiently expressed in HEK-293 cells and assayed as membrane preparations; also called canine CCK1 variant #2 receptor
T7 chain: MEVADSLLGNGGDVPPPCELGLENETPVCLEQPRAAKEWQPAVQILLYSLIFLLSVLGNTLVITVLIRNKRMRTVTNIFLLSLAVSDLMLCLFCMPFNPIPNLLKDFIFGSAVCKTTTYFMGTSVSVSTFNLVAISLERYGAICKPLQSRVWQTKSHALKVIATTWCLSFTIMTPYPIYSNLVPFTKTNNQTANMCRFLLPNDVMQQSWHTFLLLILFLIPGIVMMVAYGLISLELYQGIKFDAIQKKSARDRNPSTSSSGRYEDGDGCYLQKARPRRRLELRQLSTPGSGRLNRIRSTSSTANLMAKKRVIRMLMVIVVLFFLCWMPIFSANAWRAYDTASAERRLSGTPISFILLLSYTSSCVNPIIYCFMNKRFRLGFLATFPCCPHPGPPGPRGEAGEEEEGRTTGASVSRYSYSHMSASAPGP

[4] = Canine CCK2, [125I]-BH-CCK-8S radiolabel, n = 3, ± s.e. mean

Ki (canine CCK2 receptor; Canine CCK2, [125I]-BH-CCK-8S radiolabel, n = 3, ± s.e. mean, read-out: pKI (affinity value, -log equilibrium dissociation constant) (converted)) [µM] | fold higher affinity at the canine CCK1 receptor (compared to canine CCK2) (canine CCK1 receptor; canine CCK1 over canine CCK2) [fold] | pKD [2] | binding result [3] | Molecule | Ki (canine CCK2 receptor) [µM] | nH (Hill slope) (canine CCK2 receptor; [4]) | fold higher affinity at the canine CCK2 receptor compared to the canine CCK1 receptor (canine CCK2 receptor; canine CCK2 over canine CCK1) [fold] | nH (Hill slope) (Canine CCK1: Variant #1) | Ki (Canine CCK1: Variant #1) [µM] | nH (Hill slope) (human CCK1 receptor) | Ki (human CCK1 receptor) [µM] | inhibitory effect at [3H]-L-364,718 binding sites [1] | nH (Hill slope) (canine CCK1 receptor) | Ki (canine CCK1 receptor) [µM] | nH (Hill slope) (Canine CCK1: Wild-type) | Ki (Canine CCK1: Wild-type) [µM]
– | – | – | – | Cc1cccc(NC(=O)N[C@@H]2N=C(c3ccccc3)c3ccccc3N(CC(=O)c3ccccc3C)C2=O)c1 [YM022, 1-[(R)-2,3-dihydro-1-(2-methylphenacyl)-2-oxo-5-phenyl-1H-1,4-benzodiazepin-3-yl]-3-(3-methylphenyl)urea] | 0.000195 | 0.92 ± 0.10 | 27 | 1.39 ± 0.39 | 0.00832 | 1.15 ± 0.14 | 0.00776 | no inhibitory effect | 1.09 ± 0.13 | 0.00525 | 1.17 ± 0.30 | 0.011
2.75 | 93 | – | – | CCCCCN(CCCOC)C(=O)[C@@H](CCC(=O)O)NC(=O)c1ccc(Cl)c(Cl)c1 [dexloxiglumide, (R)-4-(3,4-Dichloro-benzoylamino)-4-[(3-methoxy-propyl)-pentyl-carbamoyl]-butyric acid] | – | 0.71 ± 0.09 | – | 0.90 ± 0.17 | 0.0166 | 0.91 ± 0.18 | 0.0295 | – | 0.83 ± 0.13 | 0.0295 | 1.33 ± 0.43 | 0.0166
– | – | 10.5 pKD (negative log of KD) | no binding (tested: 2500 µg/ml protein) | {BH(125I)}-D[sY]MGWMDF (peptide, UniProt P06307 96-103, looked up, not fully specified (C-terminus); ends and bridges not checked; also: sulfated, site not given here, 125I Bolton-Hunter conjugate, site not given here, Radioligand; also called Bolton-Hunter conjugated sulfated CCK-8) [[^125I]-BH-CCK-8S] | – | – | – | – | – | – | – | – | – | – | – | –
